“Also recorded” adds a separate entry of the source.
Columns and labels:
S1DZ neurons = test: In vivo electrophysiology, firing rate of S1DZ neurons in awake mice; set-up: species or system mouse
Protocol: Electrophysiological experiments were conducted in head-fixed mice trained to walk on a rotating running wheel. Prior to training, mice were implanted with custom crowns permitting head-fixing above the wheel and allowed to recover for one week before training. Mice were trained to walk on the wheel for three 10 min sessions daily for at least one week. Following training, mice were implanted with a multi-electrode array targeting the S1DZ and allowed to recover before testing. To assess IL-17a dependence of LPS-induced changes in neural activity, mice were injected i.p. with control antibodies or blocking antibody against IL-17a (1 mg/mouse), 30 min prior to i.p. vehicle or LPS injection. Baseline neural activity was measured while mice were running on the wheel immediately prior to the first injection. Following the first injection, mice were returned to their home cage. Post-injection (Test) neural activity during wheel running was measured 4 hrs after vehicle or LPS injection.
Custom multi-electrode array scaffolds (drive bodies) were designed using 3D CAD software (SolidWorks®) and printed in Accura 55 Plastic™ (American Precision Prototyping®) as described previously^31,32. […]
Firing rate was calculated across one second time windows during which animals were walking stably on the rotating wheel averaged across 25-50 trials per condition. […]

[1] = tested on: layer 2/3 pyramidal neurons in S1DZ; test: Whole-cell patch clamp recordings in brain slices of Veh- or LPS-injected MIA offspring; type: in vivo, mouse; settings: S1DZ pyramidal neurons from LPS-injected MIA offspring
IL-17a, IFNγ, IL-6, TNFα = test: ELISA of cytokines in plasma and brain lysate; type: in vivo, mouse
Protocol: Mice were put under general anesthesia by intraperitoneal injection of Ketamine (100 mg/kg, i.p.) and xylazine (10 mg/kg, i.p.). Blood was collected by retro-orbital puncture, using clean heparinized microhematocrit capillary tubes (Fisher Scientific®). Once the tube was withdrawn, slight pressure was applied on the eyelid with gauze to prevent further bleeding. All blood samples were centrifuged at 15,000 g for 3 min at room temperature. For quantification of cytokines in brain lysate, samples were disrupted in cold lysis buffer with protease inhibitor cocktail for 60 seconds using the Micro-Homogenizer (VWR International) and centrifuged for 30 min at 15,000×g to remove insoluble precipitates. All samples were stored at −80° C. until further analysis. Plasma and brain lysate cytokines concentrations were measured using an ELISA kit (Biolgened™), following the manufacturer's instructions.
After four hours of vehicle or LPS administration, mice were anesthetized by intraperitoneal injection of fatal plus (100 mg/kg). All blood samples were centrifuged at 10,000 g for 10 min at 4 C. All samples were stored at −80° C. until further analysis. Cytokines concentrations in plasma were measured using an ELISA kit (IFN-γ; 430804, TNF-α; 430904, IL-6; 431304, IL-17a; 432504, Biolegend®), following the manufacturer's instructions.

MIA offspring = test: Marble burying assay; type: in vivo, mouse; settings: four hours after LPS
Protocol: On day 1, mice were tested for their baseline marble burying phenotype. On day 2, four hours prior to beginning the marble burying assay, mice were treated with either LPS or vehicle. Marble burying assay was carried out as described previously^8. Mice were placed into testing arenas (arena size: 40 cm×20 cm×30 cm, bedding depth: 3 cm) each containing 20 glass marbles (laid out in four rows of five marbles equidistant from one another). At the end of the 15 min exploration period mice were carefully removed from the testing cages and the number of marbles buried was recorded. The marble burying index was arbitrarily defined as the following: 1 for marbles covered >50% with bedding, 0.5 for marbles covered <50% with bedding, or 0 for anything less.

BBB = BBB permeability (Evans blue); type: in vivo, mouse
Protocol: BBB permeability was assessed with Evans blue (Sigma Aldrich®). The Evans blue dye binds to serum albumin (69,000 Da) to become a high-molecular-weight protein tracer. Mice were injected with 100 μl of Evans blue solution (10 mg/kg in PBS) intravenously. After 30 min, all injected mice were sacrificed. Whole brains were then removed and photographed. The brain tissues were disrupted in lysis buffer at full speed for 60 seconds using a Micro-Homogenizer (VWR International®). The fluorescence was determined using a Spectrophotometer (BioTek Instruments®) with excitation at 620 nm and emission at 680 nm.

lipopolysaccharide [LPS]
overall firing rate of S1DZ neurons (S1DZ neurons; MIA offspring, 4 hrs after LPS): a decrease in overall firing rate was observed | firing rate in the S1DZ (S1DZ neurons; control (PBS) offspring): Neither LPS nor IL-17a blocking antibody treatment changed the firing rate | spiking in response to depolarizing current injections [1]: reduced spiking in response to depolarizing current injections | IL-17a in the brain (IL-17a, IFNγ, IL-6, TNFα; IFNγ KO MIA offspring, LPS treatment): no longer detectable | IL-17a and IFNγ levels in the brain (IL-17a, IFNγ, IL-6, TNFα; MIA offspring injected with LPS, brain lysate): elevated levels of IL-17a, but not IFNγ, in the brain | plasma levels of IFNγ, IL-6, TNFα and IL-17a (IL-17a, IFNγ, IL-6, TNFα; MIA offspring, LPS i.p.): increased plasma levels of inflammatory cytokines; also recorded: robust increase in plasma levels of IFNγ, IL-6, TNFα and IL-17a | plasma/blood levels of inflammatory cytokines (IL-17a, IFNγ) (IL-17a, IFNγ, IL-6, TNFα; PBS (control) offspring, LPS 50 μg/kg i.p.): insufficient to produce high levels of inflammatory cytokines; also recorded: failed to increase IL-17a and IFNγ levels in the blood | plasma levels of IFN-γ, IL-6, and TNF-α (IL-17a, IFNγ, IL-6, TNFα; PBS, MIA, WT and monogenic mutant mice (FIG. 23A), four hours after LPS): robust increase in plasma levels of IFN-γ, IL-6, and TNF-α | plasma/blood IL-17a, MIA offspring vs monogenic mutant mice and controls (IL-17a, IFNγ, IL-6, TNFα; four hours after LPS): did not induce comparable amounts of interleukin-17a (IL-17a) as in MIA offspring; also recorded: prominently upregulated in MIA offspring, but not in monogenic mutant mice or in control animals; also recorded: increase in IL-17a levels in the blood selectively in MIA offspring, but not in other monogenic mutant mice | marble burying behavior (MIA offspring): rescued an enhanced marble burying behavior | BBB permeability (leakage of i.v. Evans Blue into the brain) (BBB; MIA offspring, LPS 3.5 hr before Evans Blue): can increase BBB permeability | LPS-induced increase in EB leakage in knockout animals (BBB; animals genetically deficient for IFNγ or IL-17a): prevented in animals genetically deficient for IFNγ, but not IL-17a

Source: patent publication US20220072101A1, “HARNESSING INFLAMMATION TO TREAT NEURODEVELOPMENTAL DISORDERS” (President and Fellows of Harvard College, priority 2019, published 2022)
